The record followed here is patent US20190127359A1, “Compounds & Methods for the Enhanced Degradation of Targeted Proteins & Other Polypeptides by an E3 Ubiquitin Ligase” (YALE UNIVERSITY, priority 2012, published 2019).

Like-named read-outs stand apart in the source and are kept apart here.

The assay addresses VHL (Homo sapiens, UniProt P40337). The assay can be described thus: Fluorescence polarization competition assay (HIF-1α peptide FP displacement). Background: In fluorescence polarisation assays a small probe gives low polarisation when free and higher when bound to something large.

Regarding `Cc1cc(CC(=O)N2C[C@H](O)C[C@H]2C(=O)Nc2ccc(Br)cc2F)on1` [VL011], the IC50 (IC50 (μM) 10% DMSO, 10% DMSO) is greater than 1000 µM.

`NS(=O)(=O)c1ccc(C(=O)N2C[C@H](O)C[C@H]2C(=O)NCc2ccc(Cl)cc2)cc1` [VL082] registered an IC50 (IC50 (μM) 10% DMSO, 10% DMSO) of 29 µM.

`O=C(NCc1ccc(Cl)cc1)[C@@H]1C[C@@H](O)CN1C(=O)c1cccc(O)c1` [VL080] gave an IC50 (IC50 (μM) 10% DMSO, 10% DMSO) of 17 µM.

`COCc1cn(CC(=O)N2C[C@H](O)C[C@H]2C(=O)NCc2ccc(Cl)cc2)nn1` [VL141]: the IC50 is 220 µM (IC50 (μM) 1% DMSO, 1% DMSO) and 192 µM (IC50 (μM) 10% DMSO, 10% DMSO).

Take `Cc1ccc(S(=O)(=O)N2C[C@H](O)C[C@H]2C(=O)NCc2cccc(Cl)c2)cc1` [VL008]: for the setting “IC50 (μM) 10% DMSO, 10% DMSO”, the IC50 is greater than 1000 µM.

Regarding `O=C(NCc1ccc(Cl)cc1)[C@@H]1C[C@@H](O)CN1C(=O)c1cccc(-c2cnco2)c1` [VL122], the IC50 is, setting by setting: (IC50 (μM) 1% DMSO, 1% DMSO) 220 µM; (IC50 (μM) 10% DMSO, 10% DMSO) 102 µM.

On to `N#Cc1ccc(CC(=O)N2C[C@H](O)C[C@H]2C(=O)NCc2ccc(Cl)cc2)s1` [VL068], for which, where the note is “IC50 (μM) 10% DMSO, 10% DMSO”, the IC50 is greater than 1000 µM.

As for `CC(=O)O[C@@H]1C[C@@H](C(=O)NCc2ccc(-c3cnco3)cc2)N(C(=O)Cc2cc(C)no2)C1` [VL114], where the note is “1% DMSO”, the “IC50 (μM) 1% DMSO” value is “Inactive”. Moreover, the “IC50 (μM) 10% DMSO” value (10% DMSO) is reported as “Inactive”.

Consider `Cc1cc(CC(=O)N2C[C@H](F)C[C@H]2C(=O)NCc2ccc(-c3cnco3)cc2)on1` [VL113], for which the “IC50 (μM) 1% DMSO” value (1% DMSO) is on record as “Inactive”. In addition, the “IC50 (μM) 10% DMSO” value (10% DMSO) was “Inactive”.

Regarding `O=C(Nc1ccc(Br)cc1F)[C@@H]1C[C@@H](O)CN1S(=O)(=O)c1ccc2ccccc2c1` [VL001], the IC50 (IC50 (μM) 10% DMSO, 10% DMSO) was greater than 1000 µM.

`Cc1cc(CC(=O)N2C[C@H](O)C[C@H]2C(=O)NCc2ccncc2)on1` [VL037]: the IC50 (IC50 (μM) 10% DMSO, 10% DMSO) amounted to 88.8 µM.

The molecule `COc1cc(/C=C/C(=O)N2C[C@H](O)C[C@H]2C(=O)NCc2ccc(Cl)cc2)cc(OC)c1O` [VL057] had an IC50 (IC50 (μM) 10% DMSO, 10% DMSO) greater than 1000 µM.

Consider `Cc1nc(C(=O)N2C[C@H](O)C[C@H]2C(=O)NCc2ccc(Cl)cc2)co1` [VL101], for which the IC50 (IC50 (μM) 10% DMSO, 10% DMSO) stood at 940 µM.

`O=C(NCc1ccc(Cl)cc1)[C@@H]1C[C@@H](O)CN1C(=O)c1cncc(Br)c1` [VL100] returned an IC50 (IC50 (μM) 10% DMSO, 10% DMSO) of 63.6 µM.

Under “IC50 (μM) 10% DMSO, 10% DMSO”, `COc1ccc(CNC(=O)[C@@H]2C[C@@H](O)CN2C(=O)Cc2cc(C)no2)cc1OC` [VL025] registered a concentration for half-maximal inhibition (IC50) of 517 µM.

As to `O=C(NCc1ccc(Cl)cc1)[C@@H]1C[C@@H](O)CN1C(=O)c1cccc(C(F)(F)F)c1` [VL078], the IC50 (IC50 (μM) 10% DMSO, 10% DMSO) is 60.2 µM.

On to `Cc1cc(CC(=O)N2C[C@H](O)C[C@H]2C(=O)NCc2ccc(-c3cn[nH]c3)cc2)on1` [VL139], for which the half-inhibitory concentration (IC50) is, setting by setting: (IC50 (μM) 1% DMSO, 1% DMSO) 44 µM; (IC50 (μM) 10% DMSO, 10% DMSO) 24.7 µM.

In turn, `Cc1cc(CC(=O)N2C[C@H](O)C[C@H]2C(=O)NCc2ccc(C(C)(C)C)cc2)on1` [VL031] registered a half-maximal inhibitory concentration (IC50) (IC50 (μM) 10% DMSO, 10% DMSO) of 68.5 µM.

`O=C(NCc1ccc(Cl)cc1)[C@@H]1C[C@@H](O)CN1C(=O)c1ccccc1Cl` [VL073] returned an IC50 (IC50 (μM) 1% DMSO, 1% DMSO) of 46 µM and a half-maximal inhibitory concentration (IC50) (IC50 (μM) 10% DMSO, 10% DMSO) of 39 µM.

Consider `Cc1cc(CC(=O)N2C[C@H](O)C[C@H]2C(=O)NCc2ccc(-c3cccn3C)cc2)on1` [VL119], for which the IC50 is, setting by setting: (IC50 (μM) 1% DMSO, 1% DMSO) 33 µM; (IC50 (μM) 10% DMSO, 10% DMSO) 17.8 µM.

Consider `Cc1cc(CC(=O)N2C[C@H](O)C[C@H]2C(=O)NCc2ccc(Br)cc2)on1` [VL029], for which, where the note is “IC50 (μM) 10% DMSO, 10% DMSO”, the IC50 was 24.9 µM.

Where the note is “IC50 (μM) 10% DMSO, 10% DMSO”, `N#CCC(=O)N1C[C@H](O)C[C@H]1C(=O)NCc1ccc(Cl)cc1` [VL051] displayed an IC50 greater than 1000 µM.

Consider `CS(=O)(=O)N1C[C@H](O)C[C@H]1C(=O)NCCc1ccc(O)cc1` [VL006], for which the “IC50 (μM) 10% DMSO” value (10% DMSO) is given as “Inactive”.

With `Cc1cc(CC(=O)N2C[C@H](O)C[C@H]2C(=O)NCc2ccc(-c3cc[nH]c3)cc2)on1` [VL133, (2S,4R)—N-(4-(1H-pyrrol-3-yl)benzyl)-4-hydroxy-1-(2-(3-methylisoxazol-5-yl)acetyl)pyrrolidine-2-carboxamide], the IC50 is 7.5 µM (IC50 (μM) 1% DMSO, 1% DMSO) and 2.2 µM (IC50 (μM) 10% DMSO, 10% DMSO).

For `O=C(NCc1ccc(Cl)cc1)[C@@H]1C[C@@H](O)CN1C(=O)c1cccnc1` [VL097], under “IC50 (μM) 10% DMSO, 10% DMSO”, the IC50 worked out at 49.4 µM.

`Cc1cc(CC(=O)N2C[C@H](O)C[C@H]2C(=O)NCc2cccc3cccnc23)on1` [VL094] registered an IC50 (IC50 (μM) 10% DMSO, 10% DMSO) of 540 µM.

As for `COc1cccc(C(=O)N2C[C@H](O)C[C@H]2C(=O)NCc2ccc(Cl)cc2)c1` [VL079], the IC50 (IC50 (μM) 10% DMSO, 10% DMSO) is 26.3 µM.

`Cc1cc(CC(=O)N2C[C@H](O)C[C@H]2C(=O)NCc2ccc(-c3cncs3)cc2)on1` [VL155]: the IC50 is, setting by setting: (IC50 (μM) 1% DMSO, 1% DMSO) 14 µM; (IC50 (μM) 10% DMSO, 10% DMSO) 17.4 µM.

Where the note is “IC50 (μM) 10% DMSO, 10% DMSO”, `Cc1cc(CC(=O)N2C[C@H](O)C[C@H]2C(=O)NCc2cccnc2)on1` [VL036] had an IC50 of 744 µM.

Under “IC50 (μM) 10% DMSO, 10% DMSO”, `Cc1cc(CC(=O)N2C[C@H](O)C[C@H]2C(=O)NCCN2CCOCC2)on1` [VL015] showed an IC50 greater than 1000 µM.

For the molecule `O=C(NCc1ccc(Cl)cc1)[C@@H]1C[C@@H](O)CN1C(=O)c1cccc2cccnc12` [VL129], the IC50 reads like this: (IC50 (μM) 1% DMSO, 1% DMSO) 493 µM; (IC50 (μM) 10% DMSO, 10% DMSO) 760 µM.

Molecule `Cc1cc(CC(=O)N2C[C@H](O)C[C@H]2C(=O)NCc2ccc(-c3cccnc3)cc2)on1` [VL159] yielded an IC50 (IC50 (μM) 1% DMSO, 1% DMSO) of 54 µM and an IC50 (IC50 (μM) 10% DMSO, 10% DMSO) of 66.9 µM.

On to `Cc1cc(CC(=O)N2C[C@H](O)C[C@H]2C(=O)NCc2ccc(Cl)c(Cl)c2)on1` [VL030], for which, for the setting “IC50 (μM) 10% DMSO, 10% DMSO”, the IC50 was 215 µM.

For `N#Cc1cc(Br)cc(C(=O)N2C[C@H](O)C[C@H]2C(=O)NCc2ccc(Cl)cc2)c1` [VL059], the IC50 (IC50 (μM) 10% DMSO, 10% DMSO) was found to be 205 µM.

In turn, `O=C(NCc1ccc(Cl)cc1)[C@@H]1C[C@@H](O)CN1C(=O)Cc1cccc(Br)c1` [VL055] registered an IC50 (IC50 (μM) 10% DMSO, 10% DMSO) of 910 µM.

Consider `O=C(NCc1ccc(Cl)cc1)[C@@H]1C[C@@H](O)CN1C(=O)c1cccc(Cl)c1` [VL054], for which the IC50 (IC50 (μM) 10% DMSO, 10% DMSO) was found to be 140 µM.

As for `Cc1cc(CC(=O)N2C[C@H](O)C[C@H]2C(=O)NCc2cccc(-c3cccn3C)c2)on1` [VL118], the IC50 was 31 µM (IC50 (μM) 1% DMSO, 1% DMSO) and 16.4 µM (IC50 (μM) 10% DMSO, 10% DMSO).

Where the note is “IC50 (μM) 10% DMSO, 10% DMSO”, `Cc1cc(CC(=O)N2C[C@H](O)C[C@H]2C(=O)NCc2cccs2)on1` [VL016] came in with an IC50 of roughly 730 µM.

Regarding `CS(=O)(=O)c1ccc(CC(=O)N2C[C@H](O)C[C@H]2C(=O)NCc2ccc(Cl)cc2)cc1` [VL058], the IC50 (IC50 (μM) 10% DMSO, 10% DMSO) is greater than 1000 µM.

In the case of `Cc1cc(CC(=O)N2C[C@H](O)C[C@H]2C(=O)NCc2ccc(-c3ncon3)cc2)on1` [VL131], the half-inhibitory concentration (IC50) (IC50 (μM) 1% DMSO, 1% DMSO) was 19 µM and the IC50 (IC50 (μM) 10% DMSO, 10% DMSO) turned out to be 8 µM.

Molecule `Cc1cc(CC(=O)N2C[C@H](O)C[C@H]2C(=O)NCc2ccc(Cl)c(C(F)(F)F)c2)on1` [VL023] returned an IC50 (IC50 (μM) 10% DMSO, 10% DMSO) of 589 µM.

`Cc1cc(CC(=O)N2C[C@H](O)C[C@H]2C(=O)NCc2cccc(Cl)c2)on1` [VL004, (2S,4R)—N-(3-chlorobenzyl)-4-hydroxy-1-(2-(3-methylisoxazol-5-yl)acetyl)pyrrolidine-2-carboxamide]: the IC50 (IC50 (μM) 10% DMSO, 10% DMSO) turned out to be 123 µM and the IC50 (read-out: IC50 (μM) 1% DMSO, 1% DMSO) stood at 117 µM.

As to `CCCNC(=O)OC[C@H](NC(=O)[C@@H]1C[C@@H](O)CN1C(=O)Cc1cc(C)no1)c1ccc(Cl)cc1` [VL164], the IC50 is, setting by setting: (IC50 (μM) 1% DMSO, 1% DMSO) 40 µM; (IC50 (μM) 10% DMSO, 10% DMSO) 72.9 µM.

`Cc1cc(CC(=O)N2C[C@H](O)C[C@H]2C(=O)N[C@@H](C)c2ccccc2)on1` [VL032] gave an IC50 (IC50 (μM) 10% DMSO, 10% DMSO) of 639 µM.

Turning to `Cc1cc(CC(=O)N2C[C@H](O)C[C@H]2C(=O)NCc2ccc(F)cc2)on1` [VL020], the IC50 (IC50 (μM) 10% DMSO, 10% DMSO) came to 295 µM.

As for `O=C(NCc1ccc(Cl)cc1)[C@@H]1C[C@@H](O)CN1C(=O)c1ccc2[nH]ncc2c1` [VL126], the concentration for half-maximal inhibition (IC50) runs as follows: (IC50 (μM) 1% DMSO, 1% DMSO) 82 µM; (IC50 (μM) 10% DMSO, 10% DMSO) 88.1 µM.

Turning to `Cc1cc(CC(=O)N2C[C@H](O)C[C@H]2C(=O)NCc2ccc(-c3c(C)noc3C)cc2)on1` [VL138], the IC50 was 70 µM (IC50 (μM) 1% DMSO, 1% DMSO) and 52.2 µM (IC50 (μM) 10% DMSO, 10% DMSO).

For orientation: IC50 means the concentration needed to halve the response being measured.
